For assay [1], the target named is T1, CodB (Proteus vulgaris, UniProt A0A6G6SKI1). As to the kind of experiment: GFP thermostability assay titration (Kd); inhibition of 3H-cytosine uptake in cells. In kind it is binding. On the set-up: CodB from P. vulgaris expressed as CodB-GFP fusion, detergent-solubilised membranes.
The target of assay [2] is T1, CodB. Kind of assay: crystal structure at […] Å; GFP thermostability assay titration (Kd); sodium-dependent 3H-cytosine uptake in cells. In kind it is binding. On the set-up: CodB from P. vulgaris expressed as CodB-GFP fusion (GFP-TS assay); cleaved with 3C protease for crystallisation.

T1 sequence (A0A6G6SKI1 entry or part of it): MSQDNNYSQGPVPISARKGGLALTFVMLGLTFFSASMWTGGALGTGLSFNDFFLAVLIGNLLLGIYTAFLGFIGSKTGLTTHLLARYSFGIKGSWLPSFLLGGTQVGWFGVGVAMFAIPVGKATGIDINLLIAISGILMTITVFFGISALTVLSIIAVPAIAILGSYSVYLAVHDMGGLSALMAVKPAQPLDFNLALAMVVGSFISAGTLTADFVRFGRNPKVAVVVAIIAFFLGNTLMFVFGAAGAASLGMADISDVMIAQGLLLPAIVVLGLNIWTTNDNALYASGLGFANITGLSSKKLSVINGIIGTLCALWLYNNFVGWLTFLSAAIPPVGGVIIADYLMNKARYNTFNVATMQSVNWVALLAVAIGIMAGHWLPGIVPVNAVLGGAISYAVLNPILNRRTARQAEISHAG

Turning to `Nc1nc(=O)[nH]cc1F` [5-fluorocytosine], binding at CodB [1] was characterised by a dissociation constant (Kd) of 285 ± 39 µM.
As to `Nc1cc[nH]c(=O)n1` [cytosine], on CodB [2], the Kd – broadly, a measure of binding affinity in units of concentration – stood at 51 ± 9 µM.

The values above are taken from publication PMC9379551, “Structure of cytosine transport protein CodB provides insight into nucleobase‐cation symporter 1 mechanism” (The EMBO Journal, 2022).
